# Several values for one entry are separate records, joined by “and”; a condition that tells them apart may be missing. Identical values can stand only once. Peptide text beside a SMILES is read from it.
# T1: canine PepT1 (cPepT1) (Canis lupus familiaris, UniProt Q8WMX5)
# T1 construct: endogenous in cells; host or cells: MDCK (Madin-Darby Canine Kidney) cells, whole-cell [3H]-GlySar uptake
# T1 sequence (Q8WMX5 1-708): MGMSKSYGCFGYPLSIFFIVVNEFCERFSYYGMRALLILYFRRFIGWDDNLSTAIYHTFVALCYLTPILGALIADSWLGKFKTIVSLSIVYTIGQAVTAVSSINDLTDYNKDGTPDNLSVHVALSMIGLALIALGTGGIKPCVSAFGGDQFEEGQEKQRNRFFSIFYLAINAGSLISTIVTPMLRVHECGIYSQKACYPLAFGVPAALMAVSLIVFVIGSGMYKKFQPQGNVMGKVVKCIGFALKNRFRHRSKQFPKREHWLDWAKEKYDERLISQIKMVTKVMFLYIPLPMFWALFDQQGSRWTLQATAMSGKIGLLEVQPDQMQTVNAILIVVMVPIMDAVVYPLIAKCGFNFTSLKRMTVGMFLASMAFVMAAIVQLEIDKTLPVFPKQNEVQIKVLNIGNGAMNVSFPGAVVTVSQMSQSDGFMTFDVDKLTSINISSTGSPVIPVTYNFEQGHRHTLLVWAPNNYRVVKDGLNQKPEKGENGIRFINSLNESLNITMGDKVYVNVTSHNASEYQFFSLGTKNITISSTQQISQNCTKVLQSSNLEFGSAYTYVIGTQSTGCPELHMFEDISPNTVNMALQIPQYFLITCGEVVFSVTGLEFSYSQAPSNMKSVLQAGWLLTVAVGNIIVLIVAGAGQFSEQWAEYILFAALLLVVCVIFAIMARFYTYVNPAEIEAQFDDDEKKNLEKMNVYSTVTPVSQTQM
# B1: canine PepT1 (cPepT1) (Canis lupus familiaris) (protein)
# chain: T1 sequence (Q8WMX5 1-708)
# notes: endogenous in cells; host or cells: MDCK (Madin-Darby Canine Kidney) cells, whole-cell [3H]-GlySar uptake
# Tests used:
# [1] = molecular target: T1, canine PepT1 (cPepT1); test: Inhibition of H+-dependent 100 μM GlySar uptake by MDCK cells cultured in LHM; assay type: cell-based; details: for % inhibition of H+-dependent GlySar uptake: 1 mM extracellular substrate, 100 μM GlySar, pH 6.0, 30 min
# Experimental: Characteristic hallmarks of low affinity H^+/peptide cotransport activity, classically defined using membrane vesicles of several species, and more recently by functional expression studies using human, rat, and rabbit PepT1 cDNA, is the recognition of some, but not all, β-lactam antibiotics. […] To determine whether MDCK cPepT1 activity shared these functional features, the uptake of 100 μM GlySar in the absence and presence of pH 7.5 and pH 6.0 buffer, and, in pH 6.0 buffers, the presence of 1 mM additional GlySar (self-inhibitor control), 3 mM Penicillin-G, 30 μM cefadroxil, or 3 mM cefadroxil was compared (FIG. 13).
# Other hallmarks of PepT1 function are the decreased ability of Gly-containing peptides to inhibit GlySar, in proportion to their length, and sensitivity to inhibition by carnosine (β-Ala-His).
# Accordingly, the following general regimen was used to perform a series of experiments that evaluated the relative abilities of candidate di-(primarily) and tri-peptides to inhibit GlySar uptake by endogenously expressed cPepT1 in MDCK cells:
# 1. Sixty thousand cells/well were plated into collagen-coated 24-well trays and cultured at 37° C. in an atmosphere of 95% air/5% CO2 in DMEM/10% FCS that contained antibiotics for 1 day.
# 2. The media was removed and cells were cultured in LHM/10% FCS/antibiotics for 1 day.
# 3. The media was removed and cells cultured in LHM/10% FCS (no antibiotics) for 20 h.
# 4. The media was removed and cells cultured for 30 min in air at 37° C. in depletion medium (25 mM Hepes/Tris (pH 7.5), 140 mM NaCl, 5.4 mM KCl, 1.8 mM CaCl2, 0.8 mM MgSO4, and 5 mM glucose, to normalize intracellular nutrient pools.
# (§1) 5. Transport was initiated by replacing depletion medium with uptake medium (depletion medium adjusted to pH 6.0 or kept at pH 7.4) that contained 100 μM GlySar (at a specific activity of 5 μCi/mL, with [^3H]-GlySar supplying 2.88% of total GlySar substrate) and (or) 1 mM of inhibiting peptide.
# In total, 23 inhibitory peptides and 2 drug compounds were screened using this protocol.
# [2] = molecular target: T1, canine PepT1 (cPepT1); test: Competitor substrate inhibition of [3H]-GlySar uptake by confluent MDCK cells (Example 1); assay type: cell-based; details: for Glysylsarcosine uptake: extracellular pH 6.0, 10 mM competitor, 2.88 [3H]-glycylsarcosine, 30 min; for inhibition of H+-dependent uptake of GlySar: 10 mM competitor; for % inhibition of pH 6.0 uptake: pH 6.0, 10 mM competitor
# Experimental: (§2) Potential expression of PepT1 transport activity (H^+-dependent, dipeptide inhibitable, low-affinity dipeptide transport) by confluent MDCK cells was evaluated using whole-cell transport techniques and glycylsarcosine (GlySar) as a model dipeptide substrate. Cells were seeded at 60,000 cells/cm^2 into 24-well trays that had been coated with rat tail collagen or poly-L-lysine and cultured ([…]:5% CO2 at 37° C.) for 3 d in media consisting of Dulbecco's Modified Eagle Medium/10% fetal calf serum/1% antimicrobial antibacterial medium. Absorption (pmols/mg protein) of [^3H]-glycyl-L-sarcosine (GlySar, 6 mCi/mL, Moravek Biochemicals, Brea, Calif.) was determined using the 24-well cluster tray method and representative scintillation counting. Before transport, cells were incubated at 37° C. for 30 min in 25 mM Hepes/Tris (pH 7.5), 140 mM NaCl, 5.4 mM KCl, 1.8 mM CaCl2, 0.8 mM MgSO4, and 5 mM glucose (uptake buffer) to normalize intracellular amino acid and peptide pools. Transport was initiated by the addition of 0.25 mL of uptake buffer that contained 2.88 μm GlySar. After 30 min of uptake at 37° C., transport was terminated by rapid washing of cells with 4×2 mL 4° C. uptake buffer. Cellular protein was precipitated with 10% trichloroacetic acid and the supernatant recovered and counted to determine radioactivity (^3H) content. Cellular protein was then solubilized in 0.2 N NaOH and 0.2% SDS and quantified by the Lowry procedure, using bovine serum albumin as a standard. The amount of H^+-dependent GlySar absorbed was calculated as the difference between uptake in pH 6.0 and pH 7.5 uptake buffers. The amount of competitor substrate-inhibitable GlySar uptake was calculated as the quotient of GlySar uptake in the absence and presence of 10 mM competitor substrate (dipeptide or amino acid) multiplied by 100%.
# [3] = tested on: MDCK cells; test: Inhibition of H+-independent GlySar uptake by MDCK cells; assay type: cell-based, canine; details: 1 mM peptide, 100 μM GlySar
# Experimental: as §1
# [4] = molecular target: T1, canine PepT1 (cPepT1); test: Inhibition of H+-dependent 100 μM GlySar uptake by MDCK cells cultured in LHM; assay type: cell-based; details: 100 μM extracellular substrate
# [5] = substrate: CN(CC(=O)O)C(=O)CN; test: Characterization of GlySar uptake by MDCK cells (Km, pH gradient, time course); assay type: cell-based, canine; details: 37.0 °C
# Experimental: as §2, with “Transport was initiated by the addition of 0.25 mL of uptake buffer that contained 2.88 μm GlySar. After 30 min of uptake at 37° C., transport was terminated by rapid washing of cells with 4×2 mL 4° C. uptake buffer.” left out
# To preliminarily characterize the kinetic parameters of peptide transport by MDCK cells, the uptake of GlySar in media that contained pH 6.0 and 0.00064, 0.0025, 0.010, 0.04, 0.160, 0.640, 2.56, or 10.2 mM of GlySar was measured (FIG. 6). […]
# To confirm that H^+-dependent GlySar uptake was saturable, and therefore mediated, the uptake of GlySar from pH 6.0 and 7.4 uptake buffers containing 0.025, 0.1, 0.4, 1.6, 6.4, or 25.6 mM GlySar was evaluated (FIG. 12). […]
Molecule,% inhibition of H+-dependent GlySar uptake [1],Glysylsarcosine uptake ([2]; collagen-coated trays),Glysylsarcosine uptake ([2]; poly-L-lysine-coated trays),inhibition of H+-independent GlySar uptake [3],% inhibition of H+-dependent GlySar uptake [4],other results
[Gly]4 (GGGG) [positive control (model) substrate],19%,–,–,–,–,–
NCC(=O)O [Gly],5.0%,–,–,–,–,–
MetGlyMetMet (MGMM; OTHER INFORMATION: tetrapeptide),50%,–,–,–,–,–
CC(C)C[C@H](N)C(=O)O [Leucine],neither Leu nor Trp significantly influenced,63.0 ± 4.00 pmol 30 min^−1 mg^−1 protein,41.93 ± 2.70 pmol 30 min^−1 mg^−1 protein,–,–,–
CC(C)C[C@H](N)C(=O)N[C@@H](Cc1c[nH]c2ccccc12)C(=O)O [LeuTrp],113%,7.68 ± 1.37 pmol 30 min^−1 mg^−1 protein,5.50 ± 0.58 pmol 30 min^−1 mg^−1 protein,46%,58%,inhibition of H+-dependent uptake of GlySar ([2]; cells grown on collagen): 88%; inhibition of H+-dependent uptake of GlySar ([2]; cells grown on poly-lysine): 87%; % inhibition of pH 6.0 uptake ([2]; collagen-coated trays): 11.7%; % inhibition of pH 6.0 uptake ([2]; poly-L-lysine-coated trays): 13.0%
N[C@@H](Cc1c[nH]c2ccccc12)C(=O)N[C@@H](Cc1c[nH]c2ccccc12)C(=O)O [TrpTrp] (H-Trp-Trp-OH; N-terminus and C-terminus assumed),–,–,–,about 22%,62%,–
CC(C)C[C@H](NC(=O)[C@@H](N)Cc1c[nH]c2ccccc12)C(=O)O [TrpLeu] (H-Trp-Leu-OH; N-terminus and C-terminus assumed),117% and 116%,5.21 ± 0.39 pmol 30 min^−1 mg^−1 protein,3.44 ± 0.27 pmol 30 min^−1 mg^−1 protein,36%,92% and 94%,inhibition of H+-dependent uptake of GlySar ([2]; cells grown on collagen): 92%; inhibition of H+-dependent uptake of GlySar ([2]; cells grown on poly-lysine): 92%; % inhibition of pH 6.0 uptake ([2]; collagen-coated trays): 8.0%; % inhibition of pH 6.0 uptake ([2]; poly-L-lysine-coated trays): 8.1%
CC1(C)S[C@@H]2[C@H](NC(=O)Cc3ccccc3)C(=O)N2[C@H]1C(=O)O [Penicillin-G],0%,–,–,–,–,"inhibition of H+-dependent GlySar uptake ([1]; 3 mM Penicillin-G, 100 μM GlySar (FIG. 13)): not inhibited"
"N[C@@H](Cc1c[nH]c2ccccc12)C(=O)O [Trp, tryptophan]",neither Leu nor Trp significantly influenced,–,–,–,–,–
B1,–,–,–,–,–,"Km ([5]; other: MDCK cells seeded at 60K/well grown in LHM (FIG. 12)): 1100 µM and 1000 µM; Km ([5]; other: MDCK cells, only pH 6.0 uptake buffer, pH 6.0): 1100 µM; Km ([5]; other: confluent MDCK cells, pH 6.0 media, graphical evaluation (FIG. 6), pH 6.0): 4000 µM"

# — US6803186B2, “Compositions and methods for increasing amino acid absorption in mammals” (The IAMS Company, priority 2001, dated 2004)
